ChEMBL document CHEMBL4507282, “Data for DCP probe BI-1950” (2021)

Columns and labels:
[1] = test system: Tyrosine-protein kinase ABL1 (Homo sapiens), P00519 [H396P]; settings: Compound concentration 1000.0 nM
[2] = test system: Tyrosine-protein kinase ABL1 (Homo sapiens), P00519 [M351T]; settings: Compound concentration 1000.0 nM
[3] = target: Mitogen-activated protein kinase kinase kinase 6 (Homo sapiens) (UniProt O95382); settings: Compound concentration 1000.0 nM
[4] = target: Aurora kinase A (Homo sapiens) (UniProt O14965); settings: Compound concentration 1000.0 nM
[5] = target: Tyrosine-protein kinase receptor UFO (Homo sapiens) (UniProt P30530); settings: Compound concentration 1000.0 nM
[6] = target: Bone morphogenetic protein receptor type-1B (Homo sapiens) (UniProt O00238); settings: Compound concentration 1000.0 nM
[7] = target: Peripheral plasma membrane protein CASK (Homo sapiens) (UniProt O14936); settings: Compound concentration 1000.0 nM
[8] = target: Cyclin-dependent kinase 8 (Homo sapiens) (UniProt P49336); settings: Compound concentration 1000.0 nM
[9] = target: Casein kinase I isoform alpha (Homo sapiens) (UniProt P48729); settings: Compound concentration 1000.0 nM
[10] = target: Ephrin type-A receptor 6 (Homo sapiens) (UniProt Q9UF33); settings: Compound concentration 1000.0 nM
[11] = target: Serine/threonine-protein kinase/endoribonuclease IRE1 (Homo sapiens) (UniProt O75460); settings: Compound concentration 1000.0 nM
[12] = target: Tyrosine-protein kinase Fes/Fps (Homo sapiens) (UniProt P07332); settings: Compound concentration 1000.0 nM
[13] = target: Fibroblast growth factor receptor 2 (Homo sapiens) (UniProt P21802); settings: Compound concentration 1000.0 nM
[14] = target: Beta-adrenergic receptor kinase 1 (Homo sapiens) (UniProt P25098); settings: Compound concentration 1000.0 nM
[15] = target: Homeodomain-interacting protein kinase 2 (Homo sapiens) (UniProt Q9H2X6); settings: Compound concentration 1000.0 nM
[16] = target: Tyrosine-protein kinase JAK2 (Homo sapiens) (UniProt O60674); settings: Compound concentration 1000.0 nM
[17] = target: Mast/stem cell growth factor receptor Kit (Homo sapiens) (UniProt P10721); settings: Compound concentration 1000.0 nM
[18] = target: Tyrosine-protein kinase Lck (Homo sapiens) (UniProt P06239); settings: Compound concentration 1000.0 nM
[19] = target: Leucine-rich repeat serine/threonine-protein kinase 2 (Homo sapiens) (UniProt Q5S007); settings: Compound concentration 1000.0 nM
[20] = target: MAP/microtubule affinity-regulating kinase 3 (Homo sapiens) (UniProt P27448); settings: Compound concentration 1000.0 nM
[21] = target: Misshapen-like kinase 1 (Homo sapiens) (UniProt Q8N4C8); settings: Compound concentration 1000.0 nM
[22] = target: MAP kinase-interacting serine/threonine-protein kinase 2 (Homo sapiens) (UniProt Q9HBH9); settings: Compound concentration 1000.0 nM
[23] = target: Serine/threonine-protein kinase 24 (Homo sapiens) (UniProt Q9Y6E0); settings: Compound concentration 1000.0 nM
[24] = target: Myosin light chain kinase, smooth muscle (Homo sapiens) (UniProt Q15746); settings: Compound concentration 1000.0 nM
[25] = target: Serine/threonine-protein kinase PAK 1 (Homo sapiens) (UniProt Q13153); settings: Compound concentration 1000.0 nM
[26] = target: Serine/threonine-protein kinase PAK 5 (Homo sapiens) (UniProt Q9P286); settings: Compound concentration 1000.0 nM
[27] = target: Phosphatidylinositol 4-phosphate 5-kinase type-1 alpha (Homo sapiens) (UniProt Q99755); settings: Compound concentration 1000.0 nM
[28] = target: Phosphatidylinositol 5-phosphate 4-kinase type-2 beta (Homo sapiens) (UniProt P78356); settings: Compound concentration 1000.0 nM
[29] = target: cGMP-dependent protein kinase 1 (Homo sapiens) (UniProt Q13976); settings: Compound concentration 1000.0 nM
[30] = target: cAMP-dependent protein kinase catalytic subunit PRKX (Homo sapiens) (UniProt P51817); settings: Compound concentration 1000.0 nM
[31] = target: Proto-oncogene tyrosine-protein kinase receptor Ret (Homo sapiens) (UniProt P07949); settings: Compound concentration 1000.0 nM
[32] = target: Receptor-interacting serine/threonine-protein kinase 4 (Homo sapiens) (UniProt P57078); settings: Compound concentration 1000.0 nM
[33] = target: Dual serine/threonine and tyrosine protein kinase (Homo sapiens) (UniProt Q6XUX3); settings: Compound concentration 1000.0 nM
[34] = target: Serine/threonine-protein kinase SIK2 (Homo sapiens) (UniProt Q9H0K1); settings: Compound concentration 1000.0 nM
[35] = target: SRSF protein kinase 1 (Homo sapiens) (UniProt Q96SB4); settings: Compound concentration 1000.0 nM
[36] = target: Tyrosine-protein kinase SYK (Homo sapiens) (UniProt P43405); settings: Compound concentration 1000.0 nM
[37] = target: Tyrosine-protein kinase receptor Tie-1 (Homo sapiens) (UniProt P35590); settings: Compound concentration 1000.0 nM
[38] = target: T1, D(4) dopamine receptor (Homo sapiens) (UniProt P21917); settings: Compound concentration 10.0 uM
T1 sequence (whole entry): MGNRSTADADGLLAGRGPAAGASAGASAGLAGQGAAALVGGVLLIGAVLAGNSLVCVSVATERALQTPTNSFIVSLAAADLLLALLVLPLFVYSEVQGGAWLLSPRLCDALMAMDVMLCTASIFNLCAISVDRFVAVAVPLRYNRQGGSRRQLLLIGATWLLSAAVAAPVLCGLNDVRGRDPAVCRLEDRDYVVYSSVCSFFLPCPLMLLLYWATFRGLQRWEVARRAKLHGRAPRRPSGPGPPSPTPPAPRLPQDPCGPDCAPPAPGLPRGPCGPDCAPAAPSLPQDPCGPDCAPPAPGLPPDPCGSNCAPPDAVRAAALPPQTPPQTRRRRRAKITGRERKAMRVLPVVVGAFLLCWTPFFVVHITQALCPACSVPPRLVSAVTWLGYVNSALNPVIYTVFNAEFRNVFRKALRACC

[39] = target: Alpha-2C adrenergic receptor (Homo sapiens) (UniProt P18825); settings: Compound concentration 10.0 uM

Sequence of cAMP-dependent protein kinase catalytic subunit PRKX (Homo sapiens) (P51817 whole entry): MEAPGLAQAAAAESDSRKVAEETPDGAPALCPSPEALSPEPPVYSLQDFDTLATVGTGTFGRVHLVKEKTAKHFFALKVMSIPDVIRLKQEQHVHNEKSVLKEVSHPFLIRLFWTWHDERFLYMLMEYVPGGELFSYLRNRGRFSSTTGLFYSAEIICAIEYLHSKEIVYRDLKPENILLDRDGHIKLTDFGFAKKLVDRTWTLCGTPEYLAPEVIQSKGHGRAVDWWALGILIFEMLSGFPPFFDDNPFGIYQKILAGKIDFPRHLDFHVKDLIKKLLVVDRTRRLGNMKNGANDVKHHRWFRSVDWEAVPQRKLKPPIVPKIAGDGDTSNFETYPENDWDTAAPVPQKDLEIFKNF
Sequence of Peripheral plasma membrane protein CASK (Homo sapiens) (O14936 whole entry): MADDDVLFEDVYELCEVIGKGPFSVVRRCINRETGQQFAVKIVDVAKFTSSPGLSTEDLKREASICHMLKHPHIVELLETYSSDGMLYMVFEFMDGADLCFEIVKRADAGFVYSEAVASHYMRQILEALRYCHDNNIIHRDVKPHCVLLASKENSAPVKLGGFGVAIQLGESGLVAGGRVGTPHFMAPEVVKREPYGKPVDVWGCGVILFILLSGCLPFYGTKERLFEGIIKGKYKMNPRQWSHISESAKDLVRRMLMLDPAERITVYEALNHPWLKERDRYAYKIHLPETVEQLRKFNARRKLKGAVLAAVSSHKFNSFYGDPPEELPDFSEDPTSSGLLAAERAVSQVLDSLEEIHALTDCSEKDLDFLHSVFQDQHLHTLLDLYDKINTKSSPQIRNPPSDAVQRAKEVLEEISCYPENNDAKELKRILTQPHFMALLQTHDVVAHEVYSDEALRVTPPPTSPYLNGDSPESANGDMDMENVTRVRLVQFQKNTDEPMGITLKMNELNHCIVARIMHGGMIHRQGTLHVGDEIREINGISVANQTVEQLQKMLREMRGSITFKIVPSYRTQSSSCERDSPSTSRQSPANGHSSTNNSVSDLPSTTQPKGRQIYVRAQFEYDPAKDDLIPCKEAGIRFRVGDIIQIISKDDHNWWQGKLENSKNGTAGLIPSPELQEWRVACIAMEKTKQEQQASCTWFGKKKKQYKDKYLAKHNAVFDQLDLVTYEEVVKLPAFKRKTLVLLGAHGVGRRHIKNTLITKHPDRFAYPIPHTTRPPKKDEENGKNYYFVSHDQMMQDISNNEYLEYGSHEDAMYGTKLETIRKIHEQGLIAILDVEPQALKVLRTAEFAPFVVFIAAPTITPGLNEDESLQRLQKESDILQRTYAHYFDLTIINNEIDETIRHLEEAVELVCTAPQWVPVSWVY
Sequence of Serine/threonine-protein kinase/endoribonuclease IRE1 (Homo sapiens) (O75460 19-977 limits assumed): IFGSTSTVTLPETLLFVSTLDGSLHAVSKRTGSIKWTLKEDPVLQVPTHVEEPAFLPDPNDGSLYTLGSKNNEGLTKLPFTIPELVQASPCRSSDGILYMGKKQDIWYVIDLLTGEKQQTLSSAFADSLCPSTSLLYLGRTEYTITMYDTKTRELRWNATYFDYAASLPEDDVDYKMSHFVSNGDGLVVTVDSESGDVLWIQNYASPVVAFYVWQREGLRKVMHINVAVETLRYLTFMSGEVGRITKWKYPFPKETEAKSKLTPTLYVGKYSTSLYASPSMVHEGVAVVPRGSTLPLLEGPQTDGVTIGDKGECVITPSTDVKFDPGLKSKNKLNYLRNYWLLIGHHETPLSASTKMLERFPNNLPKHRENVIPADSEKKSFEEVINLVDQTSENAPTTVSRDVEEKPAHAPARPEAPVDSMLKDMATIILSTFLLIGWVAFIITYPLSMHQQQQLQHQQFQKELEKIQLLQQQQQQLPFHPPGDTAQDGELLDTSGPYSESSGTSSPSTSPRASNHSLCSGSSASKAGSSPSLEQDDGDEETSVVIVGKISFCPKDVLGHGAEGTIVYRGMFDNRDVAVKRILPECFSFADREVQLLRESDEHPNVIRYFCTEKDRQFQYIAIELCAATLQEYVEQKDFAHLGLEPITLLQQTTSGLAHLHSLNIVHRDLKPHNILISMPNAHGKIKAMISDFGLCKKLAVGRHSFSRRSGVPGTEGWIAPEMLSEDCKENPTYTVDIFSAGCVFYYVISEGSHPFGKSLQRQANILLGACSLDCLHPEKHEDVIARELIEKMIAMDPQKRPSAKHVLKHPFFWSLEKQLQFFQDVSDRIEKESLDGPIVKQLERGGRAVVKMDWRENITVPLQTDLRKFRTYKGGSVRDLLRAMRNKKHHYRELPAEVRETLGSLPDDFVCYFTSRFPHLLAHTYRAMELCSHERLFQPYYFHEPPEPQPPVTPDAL
Sequence of Serine/threonine-protein kinase PAK 5 (Homo sapiens) (Q9P286 whole entry, looked up): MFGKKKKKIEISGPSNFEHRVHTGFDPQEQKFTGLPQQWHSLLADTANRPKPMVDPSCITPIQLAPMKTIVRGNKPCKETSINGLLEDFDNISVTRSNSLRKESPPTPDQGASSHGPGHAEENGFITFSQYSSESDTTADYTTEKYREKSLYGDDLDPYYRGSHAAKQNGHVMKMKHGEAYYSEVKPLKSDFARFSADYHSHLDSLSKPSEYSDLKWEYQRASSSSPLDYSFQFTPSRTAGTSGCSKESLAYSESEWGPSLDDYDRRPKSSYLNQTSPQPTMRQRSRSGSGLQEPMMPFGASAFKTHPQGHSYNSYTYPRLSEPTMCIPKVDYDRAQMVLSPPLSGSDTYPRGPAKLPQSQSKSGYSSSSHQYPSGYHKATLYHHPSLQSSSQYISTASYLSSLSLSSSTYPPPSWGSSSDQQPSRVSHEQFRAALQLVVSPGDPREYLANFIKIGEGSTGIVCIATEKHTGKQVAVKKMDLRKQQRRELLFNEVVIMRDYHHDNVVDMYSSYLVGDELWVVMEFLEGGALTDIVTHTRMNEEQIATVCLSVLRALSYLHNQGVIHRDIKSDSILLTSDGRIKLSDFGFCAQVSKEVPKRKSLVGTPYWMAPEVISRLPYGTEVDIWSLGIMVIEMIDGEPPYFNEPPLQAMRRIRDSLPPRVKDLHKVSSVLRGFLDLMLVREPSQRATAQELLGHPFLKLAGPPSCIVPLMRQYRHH
Sequence of Fibroblast growth factor receptor 2 (Homo sapiens) (P21802 22-821 limits assumed): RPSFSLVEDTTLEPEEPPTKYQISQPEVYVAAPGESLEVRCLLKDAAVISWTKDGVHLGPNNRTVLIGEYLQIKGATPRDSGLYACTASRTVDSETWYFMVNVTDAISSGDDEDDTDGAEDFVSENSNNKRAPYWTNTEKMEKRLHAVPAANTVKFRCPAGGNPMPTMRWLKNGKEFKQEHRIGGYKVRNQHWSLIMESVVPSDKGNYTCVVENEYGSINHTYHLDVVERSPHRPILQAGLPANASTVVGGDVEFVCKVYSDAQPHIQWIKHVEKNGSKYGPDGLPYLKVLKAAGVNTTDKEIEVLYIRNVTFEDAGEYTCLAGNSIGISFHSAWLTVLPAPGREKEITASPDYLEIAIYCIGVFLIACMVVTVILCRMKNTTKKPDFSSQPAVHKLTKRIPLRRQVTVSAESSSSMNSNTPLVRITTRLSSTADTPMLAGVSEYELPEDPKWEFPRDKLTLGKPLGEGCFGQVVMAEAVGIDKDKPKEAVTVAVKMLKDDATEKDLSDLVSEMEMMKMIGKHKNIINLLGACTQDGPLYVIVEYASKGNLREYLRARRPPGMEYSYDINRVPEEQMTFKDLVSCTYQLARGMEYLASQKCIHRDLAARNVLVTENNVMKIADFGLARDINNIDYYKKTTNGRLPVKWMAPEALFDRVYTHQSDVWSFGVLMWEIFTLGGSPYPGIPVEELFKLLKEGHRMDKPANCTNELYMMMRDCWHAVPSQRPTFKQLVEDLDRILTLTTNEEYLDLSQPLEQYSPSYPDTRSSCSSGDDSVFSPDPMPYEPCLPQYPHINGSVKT
Sequence of MAP/microtubule affinity-regulating kinase 3 (Homo sapiens) (P27448 whole entry, looked up): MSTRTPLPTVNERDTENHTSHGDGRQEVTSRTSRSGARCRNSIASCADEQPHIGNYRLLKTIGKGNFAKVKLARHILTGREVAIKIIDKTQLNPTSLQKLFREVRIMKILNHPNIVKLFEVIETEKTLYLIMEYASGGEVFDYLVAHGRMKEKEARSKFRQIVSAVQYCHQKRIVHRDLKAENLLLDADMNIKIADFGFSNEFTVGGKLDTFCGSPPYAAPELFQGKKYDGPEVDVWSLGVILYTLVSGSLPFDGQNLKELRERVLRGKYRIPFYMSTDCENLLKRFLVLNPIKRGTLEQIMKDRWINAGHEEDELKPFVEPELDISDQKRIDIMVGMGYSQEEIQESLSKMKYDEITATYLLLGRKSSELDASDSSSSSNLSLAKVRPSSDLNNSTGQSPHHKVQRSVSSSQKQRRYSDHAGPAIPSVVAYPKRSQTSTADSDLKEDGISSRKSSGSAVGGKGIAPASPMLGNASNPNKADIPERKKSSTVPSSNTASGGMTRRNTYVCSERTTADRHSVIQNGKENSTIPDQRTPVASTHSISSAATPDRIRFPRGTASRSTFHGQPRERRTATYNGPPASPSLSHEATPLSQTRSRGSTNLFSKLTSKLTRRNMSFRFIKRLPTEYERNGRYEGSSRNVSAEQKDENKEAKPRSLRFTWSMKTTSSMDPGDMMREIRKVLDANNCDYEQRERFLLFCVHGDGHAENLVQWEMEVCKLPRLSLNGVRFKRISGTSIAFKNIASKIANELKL
Sequence of Serine/threonine-protein kinase 24 (Homo sapiens) (Q9Y6E0 whole entry, looked up): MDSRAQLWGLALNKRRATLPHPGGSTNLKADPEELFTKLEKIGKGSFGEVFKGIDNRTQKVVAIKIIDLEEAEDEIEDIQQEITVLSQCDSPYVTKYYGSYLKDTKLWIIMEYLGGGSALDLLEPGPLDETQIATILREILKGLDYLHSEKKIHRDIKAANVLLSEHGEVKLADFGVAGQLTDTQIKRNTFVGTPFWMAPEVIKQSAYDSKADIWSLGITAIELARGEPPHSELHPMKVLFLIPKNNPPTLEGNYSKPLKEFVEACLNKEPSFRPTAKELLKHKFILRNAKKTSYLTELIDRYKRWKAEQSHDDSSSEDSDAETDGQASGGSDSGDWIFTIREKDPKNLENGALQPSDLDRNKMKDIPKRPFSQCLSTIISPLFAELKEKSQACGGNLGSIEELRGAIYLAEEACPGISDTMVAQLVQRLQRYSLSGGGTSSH

C[C@H](NC(=O)c1cnc2n1[C@](C)(Cc1ccc(C#N)cc1)C(=O)N2c1cc(Cl)c(F)c(Cl)c1)C(=O)NC1(c2ccccn2)CC1 [BI 1950]
inactive: residual activity [1] 91% | residual activity [2] 100% | residual activity [3] 100% | residual activity [4] 100% | residual activity [5] 100% | residual activity [6] 99% | residual activity [7] 100% | residual activity [8] 100% | residual activity [9] 100% | residual activity [10] 100% | residual activity [11] 96% | residual activity [12] 100% | residual activity [13] 100% | residual activity [14] 100% | residual activity [15] 100% | residual activity [16] 100% | residual activity [17] 91% | residual activity [18] 100% | residual activity [19] 100% | residual activity [20] 92% | residual activity [21] 100% | residual activity [22] 100% | residual activity [23] 100% | residual activity [24] 100% | residual activity [25] 95% | residual activity [26] 100% | residual activity [27] 100% | residual activity [28] 100% | residual activity [29] 62% | residual activity [30] 100% | residual activity [31] 100% | residual activity [32] 100% | residual activity [33] 87% | residual activity [34] 100% | residual activity [35] 81% | residual activity [36] 100% | residual activity [37] 100% | inhibition [38] -2.68% | inhibition [39] 0.16%

C[C@@]1(Cc2ccc(C#N)cc2)C(=O)N(c2cc(Cl)cc(Cl)c2)c2ncc(C(=O)NC3(c4nc(C5CCC5)no4)CC3)n21 [BI 9446]
inactive: residual activity [1] 96% | residual activity [2] 100% | residual activity [3] 82% | residual activity [4] 92% | residual activity [5] 100% | residual activity [6] 100% | residual activity [7] 100% | residual activity [8] 100% | residual activity [9] 100% | residual activity [10] 88% | residual activity [11] 82% | residual activity [12] 100% | residual activity [13] 100% | residual activity [14] 100% | residual activity [15] 100% | residual activity [16] 100% | residual activity [17] 98% | residual activity [18] 100% | residual activity [19] 93% | residual activity [20] 100% | residual activity [21] 100% | residual activity [22] 100% | residual activity [23] 93% | residual activity [24] 100% | residual activity [25] 99% | residual activity [26] 100% | residual activity [27] 100% | residual activity [28] 97% | residual activity [29] 100% | residual activity [30] 100% | residual activity [31] 100% | residual activity [32] 100% | residual activity [33] 95% | residual activity [34] 100% | residual activity [35] 94% | residual activity [36] 100% | residual activity [37] 100% | inhibition [38] 13.6% | inhibition [39] 9.3%
